The results in this text go back to patent publication US9777015B2, “Useful thiophene derivatives in the treatment of diabetes” (METABRAIN RESEARCH, priority 2012, dated 2017).

Assay [1] concerns isolated perfused pancreases of N0STZ diabetic rats. Briefly: Insulin secretion in response to glucose at isolated perfused pancreases of N0STZ diabetic rats. As to conditions: for restoring insulin secretion in response to glucose: isolated perfused pancreases of N0STZ diabetic rats; for Insulin secretion peak at G16.5 mM, Tested product: tested concentration 10 μM, glucose 16.5 mM, average +/- SEM. The arrangement: species or system rat. The protocol: The pancreas was taken on rats made to be diabetic by injection of Streptozotocin on the day of birth and anesthetized with Pentobarbital (Nembutal©: 45 mg/kg; intraperitoneal route). These rats have a specific deficiency of the insulin response to glucose, as observed in humans with diabetes of type II. The isolation and the perfusion of the pancreas were achieved according to a modification of the procedure described by Sussman et al.. The effect of the compounds or reference substances is tested for 35 minutes (from t=20 min to t=55 min) in Krebs buffer in the absence (GO) or in the presence of glucose at 2.8 mM (G2.8 mM), and then 20 minutes (from t=55 min to t=75 min) in the presence of glucose 16.5 mM. The concentration of insulin secreted into the medium is measured by an Elisa assay (ELISA Alpco Cat no. 80-INSRTH-E10). The results are expressed as an average+/−SEM (Standard Error of the Mean) of several experiments.

Another assay has as its system INS-1 cells. As to the kind of experiment: Stimulation test of insulin secretion by INS-1 cells. The format is cell-based. As to conditions: Rattus norvegicus, 1 h incubation, 3.5 mM glucose; for activity at 10 µM: INS1, compound at 10 μM, read-out: INS-1 % of ctrl @ 10 μM; for activity at 50 µM: INS1, compound at 50 μM, read-out: INS-1 % of ctrl @ 50 μM. The protocol: The different compounds were tested on an INS-1 beta-pancreatic line in order to evaluate their capability of potentializing the insulin secretion in response to glucose. Very briefly, the cells are cultivated in a culture medium, RPMI 1640 with 10 mM glucose containing 1 mM of sodium pyruvate, 50 μM of 2-mercaptoethanol, 2 mM of glutamine, 10 mM of HEPES, 100 IU/mL of penicillin, 100 μg/mL of streptomycin and 10% of inactivated fetal calf serum, as described by Asfari et al.. For the insulin secretion test, the INS-1 cells are sown and cultivated in 96-well plates. After 3 days of cultivation at 37° C. in a humid atmosphere (95% air/5% CO2), the medium is removed and the cells are incubated for 16 h in a medium containing 5 mM of glucose and 1% of inactivated fetal calf serum. On the day of the test, the cells are washed with a Krebs buffer (pH 7.4) containing 0.1% of bovine albumin and then pre-incubated for 30 min at 37° C. in this same buffer containing 2.8 mM of glucose. Finally, the cells are again washed with Krebs buffer and then incubated for 1 h in the buffer of the secretion test (Krebs, pH 7.4 containing 0.1% of bovine albumin and 3.5 mM of glucose and molecules to be evaluated). At the end of the test, the cell supernatant is recovered in order to measure therein the secreted insulin, by means of an ELISA kit using a rat anti-insulin antibody (ELISA Alpco Cat no. 80-INSRTH-E10). Each condition is tested in triplicate. The 3.5 mM glucose, the 10^−7M GLP-1 and the Forskoline 10^−7/IBMX 10^−5M mixtures are used as positive controls of the test. A compound stimulates the secretion of insulin if this factor is greater than or equal to 130% of the control for a given glucose dose.

Assay [2] concerns hepatocytes isolated from Wistar rat liver. Briefly: Test of inhibition of hepatic production of glucose (isolated hepatocytes, 3 h or 20 h incubation). As to conditions: for activity at 50 µM / activity at 100 µM: Rattus norvegicus, Hepatocyte; for activity at 50 µM: read-out: HGP % of ctrl @ 50 μM; for activity at 100 µM: read-out: HGP % of ctrl @ 100 μM. The format is cell-based. In outline: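 Hepatocytes from 24 h-fasted Wistar rats were cultured overnight in glucose-free RPMI with hydrocortisone (7.10^−5M). Glucose production was run for 3 h in Krebs with lactate/pyruvate plus compounds (0.1% DMSO final), or after an added 20 h pretreatment during the RPMI culture. Supernatant glucose was measured by glucose oxidase and expressed per mg protein (Lowry).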

In a further assay the test system is GK (Goto-Kakisaki) rats. Briefly: Antidiabetic activity in GK (Goto-Kakisaki) rats, intravenous glucose tolerance test (IVGTT). As to conditions: single oral dose 20 mg/kg. The format is in vivo, rat. The protocol:
The antidiabetic activity of compound 10 was evaluated in GK rats, a non-obese model of diabetes of type II. This model was obtained by cross-breeding of Wistar rats selected on the basis of a slight intolerance to glucose. These rats have the majority of dysfunctions observed in diabetes of type II in humans: hyperglycemia, intolerance to glucose, insulin-resistance, and deteriorated insulin response to glucose. These animals were bred at Metabrain and were housed in an animal housing facility with a regulated temperature (22±2° C.) under constant humidity (50±20%) with a day/night cycle of 12 h (light from 7 h-19 h) and have access ad libitum to food and drink. The housing and experimentation conditions comply with the European directives relating to health and ethical treatment of laboratory animals (ETS123). In this study, the rats used are female 16-week old GK rats having fasted for 2 hours before beginning the study (postabsorptive condition). A glucose tolerance test is carried out via an intravenous route (IVGTT) on 2 groups of rats: One group treated with the compound 10 orally at the single dose of 20 mg/kg and a control group treated orally with the carrier. The tolerance test is carried out 1 h after oral administration of compound 10 on the animals anesthetized beforehand with pentobarbital (45 mg/kg via an intraperitoneal route). A blood sample was taken at TO just before administration of the glucose load (0.5 g/kg via an intravenous route) and at x T5, T10, T15, T20 and T30 min after the glucose load. The blood samples are centrifuged in order to collect the plasma for determining glycemia. The results shown above are expressed • as a percentage of the decrease of glycemia at TO for the group treated with the compound 10, compared with the control group. • as a percentage of the decrease of AUC (area under the curve of glycemia versus time) for the group treated with the compound 10 as compared with the control group.

The mark [3] stands for this setting: 3 h, hepatic glucose production, rat hepatocytes, 3 h incubation, compound at 50 μM.
The mark [4] stands for this setting: 3 h, hepatic glucose production, rat hepatocytes, 3 h incubation, compound at 100 μM.
Where [5] appears, read: 20 h, hepatic glucose production, rat hepatocytes, 20 h incubation, compound at 50 μM.
[6] abbreviates: 20 h, hepatic glucose production, rat hepatocytes, 20 h incubation, compound at 100 μM.

Like-named read-outs stand apart in the source and are kept apart here.

As for `CCOC(=O)Cc1cc(C(=O)c2ccco2)sc1-c1ccc(Cl)cc1` [compound 10, ethyl 2-(2-(4-chlorophenyl)-5-(furan-2-carbonyl)thiophen-3-yl)acetate], the “restoring insulin secretion in response to glucose” value (from here on “restoring insulin secretion”) in assay [1] is listed as “strongest secretions”. Moreover, in the assay on INS-1 cells, the activity at 10 µM turned out to be 144% and the activity at 50 µM was 210%. In addition, the activity at 50 µM in assay [2] (setting [3]) amounted to 64%. In addition, in assay [2] (setting [4]), the activity at 100 µM came out at 39%. The intolerance to glucose result in the assay on GK (Goto-Kakisaki) rats (GK rats, IVGTT 1 h after administration) is given as “capable of reducing”. Moreover, the basal hyperglycemia entry with GK (Goto-Kakisaki) rats (GK rats, glycemia at T0) was “capable of reducing”. For the same compound, in the assay on GK (Goto-Kakisaki) rats (female GK rats, IVGTT, vs control group treated with carrier), the “AUC, % of activity” value was −35%. Moreover, in the assay on GK (Goto-Kakisaki) rats (female GK rats, vs control group treated with carrier), the “Glycemia at T0, % of activity” value is recorded as −11%.
Take `CCOC(=O)Cc1cc(C(=O)c2ccc(OC)cc2)sc1-c1ccc(Cl)c(Cl)c1` [compound 157, ethyl 2-[2-(3,4-dichlorophenyl)-5-(4-methoxybenzoyl)-3-thienyl]acetate]: the “Insulin secretion peak at G16.5 mM, Tested product” value (from here on “Insulin secretion peak at G16.5 mM”) in assay [1] amounted to 989 ± 86 μU/min. Moreover, the activity at 50 µM was 140% in the assay with INS-1 cells and 97% in assay [2] (setting [3]). Also, the activity at 100 µM in assay [2] (setting [4]) is 74%.
`O=C(O)Cc1cc(C(=O)c2ccco2)sc1-c1ccc(Cl)cc1` [compound 56, 2-(2-(4-chlorophenyl)-5-(furan-2-carbonyl)thiophen-3-yl)acetic acid]: the “Insulin secretion peak at G16.5 mM” value in assay [1] turned out to be 845 ± 133 μU/min. The “HGP % of ctrl @ 50 μM” value in assay [2] (hepatic glucose production, rat hepatocytes, 3 h incubation, compound at 50 μM) was 94 % of ctrl. Besides, the “HGP % of ctrl @ 100 μM” value in assay [2] (hepatic glucose production, rat hepatocytes, 3 h incubation, compound at 100 μM) was 70 % of ctrl.
With `CCOC(=O)Cc1cc(C(=O)c2ccc(OC)cc2)sc1-c1ccc(Cl)cc1` [compound 13, ethyl 2-(2-(4-chlorophenyl)-5-(4-methoxybenzoyl)thiophen-3-yl)acetate], in assay [1], the “restoring insulin secretion” value was “strongest secretions”. Besides, in assay [1], the “Insulin secretion peak at G16.5 mM” value is recorded as 1 489 μU/min. In the assay on INS-1 cells, the activity at 10 µM worked out at 155%. In addition, the “inhibition of hepatic production of glucose” value in assay [2] (20 h incubation, with two doses) is given as “strongest inhibitions”. Moreover, the values for the activity at 50 µM in assay [2] (setting [3]) and in assay [2] (setting [5]) were 84% and 58%, respectively. For the same compound, the values for the activity at 100 µM in assay [2] (setting [4]) and in assay [2] (setting [6]) were 69% and 35%, respectively.
As for `CCOC(=O)Cc1cc(C(=O)c2ccccc2)sc1-c1ccc(Cl)cc1` [compound 15, ethyl 2-(5-benzoyl-2-(4-chloro-phenyl)thiophen-3-yl)acetate], in the assay on INS-1 cells, the activity at 10 µM is 150% and the activity at 50 µM was 160%. Moreover, the activity at 50 µM in assay [2] (setting [5]) came to 63%. The activity at 100 µM in assay [2] (setting [6]) stood at 32%.
For the compound `CCON=C(c1ccc(OC)cc1)c1cc(CC(=O)O)c(-c2ccc(Cl)cc2)s1` [compound 108, 2-(2-(4-chlorophenyl)-5-((ethoxyimino)(4-methoxyphenyl)methyl)thiophen-3-yl)acetic acid], the activity at 10 µM in the assay with INS-1 cells is 135%. For the same compound, the activity at 50 µM in assay [2] (setting [3]) was found to be 88%. The activity at 100 µM in assay [2] (setting [4]) is 26%.
Turning to `O=C(O)Cc1cc(C(=O)C2CCCCC2)sc1-c1ccccc1` [compound 52, 2-(5-(cyclohexanecarbonyl)-2-phenylthiophen-3-yl)acetic acid], in the assay on INS-1 cells, the activity at 10 µM amounted to 127% and the activity at 50 µM was 140%. For the same compound, in assay [2] (setting [3]), the activity at 50 µM came to 61%. Moreover, in assay [2] (setting [4]), the activity at 100 µM is 44%.
Take `CCOC(=O)C(COC)c1cc(C(=O)c2ccc(OC)cc2)sc1-c1ccc(Cl)cc1` (centres unmarked) [compound 124, ethyl 2-(2-(4-chlorophenyl)-5-(4-methoxybenzoyl)thiophen-3-yl)-3-methoxypropanoate]: the “restoring insulin secretion” value in assay [1] was “strongest secretions”. In the assay on INS-1 cells, the activity at 10 µM is 177% and the activity at 50 µM is 169%. Further, the activity at 50 µM in assay [2] (setting [5]) is 92%. In addition, the activity at 100 µM in assay [2] (setting [6]) was found to be 60%.
As to `CCOC(=O)Cc1cc(C(=O)c2ccccc2)sc1-c1ccc(OC)cc1` [compound 35, ethyl 2-(5-benzoyl-2-(4-methoxy-phenyl)thiophen-3-yl)acetate], in the assay on INS-1 cells, the activity at 10 µM worked out at 128% and the activity at 50 µM was determined as 148%. Besides, the activity at 50 µM in assay [2] (setting [5]) was found to be 100%. Besides, the activity at 100 µM in assay [2] (setting [6]) was 70%.
